Here are results for two compounds from ChEMBL document CHEMBL1833910, “Identification and SAR of a new series of thieno[3,2-d]pyrimidines as Tpl2 kinase inhibitors” (Bioorg Med Chem Lett, 2011).

Assay [1] addresses Serine/threonine-protein kinase MARK1 (Homo sapiens) (UniProt Q9P0L2). Kind of assay: Inhibition of MARK1 at 1 uM.
The target in assay [2] is Serine/threonine-protein kinase PAK 4 (Homo sapiens) (UniProt O96013). Kind of assay: Inhibition of PAK4 at 1 uM.
The target in assay [3] is Proto-oncogene tyrosine-protein kinase Src (Homo sapiens) (UniProt P12931). Kind of assay: Inhibition of SRC at 1 uM.
Assay [4] addresses T1, Serine/threonine-protein kinase 3 (Homo sapiens) (UniProt Q13188).
T1 sequence (whole entry): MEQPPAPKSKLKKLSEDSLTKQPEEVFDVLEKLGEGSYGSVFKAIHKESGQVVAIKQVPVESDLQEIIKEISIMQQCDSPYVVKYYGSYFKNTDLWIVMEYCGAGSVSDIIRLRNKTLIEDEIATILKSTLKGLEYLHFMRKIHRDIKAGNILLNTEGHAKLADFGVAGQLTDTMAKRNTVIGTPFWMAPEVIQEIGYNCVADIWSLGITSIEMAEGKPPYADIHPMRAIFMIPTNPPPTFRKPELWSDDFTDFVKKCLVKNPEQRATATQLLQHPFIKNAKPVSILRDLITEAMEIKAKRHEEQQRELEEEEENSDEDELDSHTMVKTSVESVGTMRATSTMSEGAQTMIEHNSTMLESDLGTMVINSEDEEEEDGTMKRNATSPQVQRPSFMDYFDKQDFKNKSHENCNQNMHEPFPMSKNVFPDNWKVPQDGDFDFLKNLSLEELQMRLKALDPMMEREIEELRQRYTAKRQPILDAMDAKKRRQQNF
In words: Inhibition of MST2 at 1 uM.

Assay [5] concerns the target T2, Serine/threonine-protein kinase Nek2 (Homo sapiens) (UniProt P51955).
T2 sequence (whole entry): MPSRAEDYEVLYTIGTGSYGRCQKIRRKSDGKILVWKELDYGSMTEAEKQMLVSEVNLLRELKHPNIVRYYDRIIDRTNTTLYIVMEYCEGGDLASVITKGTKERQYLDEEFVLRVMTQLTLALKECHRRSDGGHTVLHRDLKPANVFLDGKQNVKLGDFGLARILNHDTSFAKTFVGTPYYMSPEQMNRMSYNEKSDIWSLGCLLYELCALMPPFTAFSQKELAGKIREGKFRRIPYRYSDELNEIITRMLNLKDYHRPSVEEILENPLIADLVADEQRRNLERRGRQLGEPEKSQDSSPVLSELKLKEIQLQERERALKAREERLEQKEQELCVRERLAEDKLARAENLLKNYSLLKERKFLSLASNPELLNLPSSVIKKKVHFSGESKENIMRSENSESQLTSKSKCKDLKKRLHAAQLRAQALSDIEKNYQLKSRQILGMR
Kind of assay: Inhibition of NEK2 at 1 uM.

Assay [6] concerns the target Casein kinase I isoform alpha (Homo sapiens) (UniProt P48729). Kind of assay: Inhibition of CK1-alpha1 at 1 uM.
A short description of assay [7]: Inhibition of PKA at 1 uM.
The target of assay [8] is T3, Aurora kinase A (Homo sapiens) (UniProt O14965).
T3 sequence (whole entry): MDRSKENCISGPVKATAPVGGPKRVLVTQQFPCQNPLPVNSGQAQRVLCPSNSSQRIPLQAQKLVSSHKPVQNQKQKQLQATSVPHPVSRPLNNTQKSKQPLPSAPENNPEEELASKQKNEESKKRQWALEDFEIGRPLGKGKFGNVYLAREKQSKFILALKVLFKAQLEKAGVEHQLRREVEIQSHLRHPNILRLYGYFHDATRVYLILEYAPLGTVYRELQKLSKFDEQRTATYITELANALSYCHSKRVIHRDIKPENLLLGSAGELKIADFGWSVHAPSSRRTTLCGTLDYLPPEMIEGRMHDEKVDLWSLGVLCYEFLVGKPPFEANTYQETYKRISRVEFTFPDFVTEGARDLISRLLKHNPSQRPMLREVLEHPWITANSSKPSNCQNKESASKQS
Kind of assay: Inhibition of Aurora A at 1 uM.

Assay [9] deals with Tyrosine-protein kinase Lck (Homo sapiens) (UniProt P06239). Kind of assay: Inhibition of LCK at 1 uM.
For assay [10], the target named is MAP kinase-activated protein kinase 2 (Homo sapiens) (UniProt P49137). In words: Inhibition of MK2 at 1 uM.
Assay [11] addresses Epidermal growth factor receptor (Homo sapiens) (UniProt P00533). In words: Inhibition of EGFR at 1 uM.
The target of assay [12] is Rho-associated protein kinase 1 (Homo sapiens) (UniProt Q13464). Kind of assay: Inhibition of ROCK1 at 1 uM.
The nature of assay [13]: Inhibition of P38 at 1 uM.
Assay [14] concerns the target T4, Tyrosine-protein kinase JAK3 (Homo sapiens) (UniProt P52333).
T4 sequence (whole entry): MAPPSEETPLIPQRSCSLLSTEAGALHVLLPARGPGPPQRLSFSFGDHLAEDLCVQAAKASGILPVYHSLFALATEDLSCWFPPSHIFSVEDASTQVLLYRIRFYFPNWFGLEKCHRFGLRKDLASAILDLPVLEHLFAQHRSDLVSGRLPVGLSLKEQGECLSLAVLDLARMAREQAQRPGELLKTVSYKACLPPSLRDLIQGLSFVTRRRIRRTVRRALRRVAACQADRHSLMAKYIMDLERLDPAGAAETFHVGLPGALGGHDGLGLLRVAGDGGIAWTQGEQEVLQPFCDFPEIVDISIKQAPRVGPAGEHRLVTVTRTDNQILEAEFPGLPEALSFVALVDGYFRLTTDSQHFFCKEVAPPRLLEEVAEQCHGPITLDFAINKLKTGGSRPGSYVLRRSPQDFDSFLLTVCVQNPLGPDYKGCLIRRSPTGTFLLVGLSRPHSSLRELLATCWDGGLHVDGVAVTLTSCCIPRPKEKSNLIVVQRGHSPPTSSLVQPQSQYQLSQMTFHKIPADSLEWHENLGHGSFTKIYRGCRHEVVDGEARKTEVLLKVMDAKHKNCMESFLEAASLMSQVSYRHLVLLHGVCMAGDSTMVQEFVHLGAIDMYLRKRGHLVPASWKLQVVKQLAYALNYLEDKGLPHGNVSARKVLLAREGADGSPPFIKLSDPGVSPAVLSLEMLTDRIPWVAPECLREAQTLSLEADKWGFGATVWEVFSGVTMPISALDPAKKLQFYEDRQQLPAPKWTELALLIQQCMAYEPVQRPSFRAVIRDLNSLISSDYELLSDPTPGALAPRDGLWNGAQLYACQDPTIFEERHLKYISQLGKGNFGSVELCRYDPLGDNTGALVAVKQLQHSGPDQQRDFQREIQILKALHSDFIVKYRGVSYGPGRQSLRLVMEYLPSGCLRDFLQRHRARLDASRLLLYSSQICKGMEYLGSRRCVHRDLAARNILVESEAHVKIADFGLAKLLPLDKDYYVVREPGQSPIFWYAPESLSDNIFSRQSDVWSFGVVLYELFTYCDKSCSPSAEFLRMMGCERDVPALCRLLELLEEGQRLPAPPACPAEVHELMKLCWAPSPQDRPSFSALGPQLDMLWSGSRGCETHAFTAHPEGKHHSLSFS
Kind of assay: Inhibition of JAK3 at 1 uM.

SMILES strings stand for the structures.

Chain of Rho-associated protein kinase 1 (Homo sapiens) (Q13464 whole entry, looked up): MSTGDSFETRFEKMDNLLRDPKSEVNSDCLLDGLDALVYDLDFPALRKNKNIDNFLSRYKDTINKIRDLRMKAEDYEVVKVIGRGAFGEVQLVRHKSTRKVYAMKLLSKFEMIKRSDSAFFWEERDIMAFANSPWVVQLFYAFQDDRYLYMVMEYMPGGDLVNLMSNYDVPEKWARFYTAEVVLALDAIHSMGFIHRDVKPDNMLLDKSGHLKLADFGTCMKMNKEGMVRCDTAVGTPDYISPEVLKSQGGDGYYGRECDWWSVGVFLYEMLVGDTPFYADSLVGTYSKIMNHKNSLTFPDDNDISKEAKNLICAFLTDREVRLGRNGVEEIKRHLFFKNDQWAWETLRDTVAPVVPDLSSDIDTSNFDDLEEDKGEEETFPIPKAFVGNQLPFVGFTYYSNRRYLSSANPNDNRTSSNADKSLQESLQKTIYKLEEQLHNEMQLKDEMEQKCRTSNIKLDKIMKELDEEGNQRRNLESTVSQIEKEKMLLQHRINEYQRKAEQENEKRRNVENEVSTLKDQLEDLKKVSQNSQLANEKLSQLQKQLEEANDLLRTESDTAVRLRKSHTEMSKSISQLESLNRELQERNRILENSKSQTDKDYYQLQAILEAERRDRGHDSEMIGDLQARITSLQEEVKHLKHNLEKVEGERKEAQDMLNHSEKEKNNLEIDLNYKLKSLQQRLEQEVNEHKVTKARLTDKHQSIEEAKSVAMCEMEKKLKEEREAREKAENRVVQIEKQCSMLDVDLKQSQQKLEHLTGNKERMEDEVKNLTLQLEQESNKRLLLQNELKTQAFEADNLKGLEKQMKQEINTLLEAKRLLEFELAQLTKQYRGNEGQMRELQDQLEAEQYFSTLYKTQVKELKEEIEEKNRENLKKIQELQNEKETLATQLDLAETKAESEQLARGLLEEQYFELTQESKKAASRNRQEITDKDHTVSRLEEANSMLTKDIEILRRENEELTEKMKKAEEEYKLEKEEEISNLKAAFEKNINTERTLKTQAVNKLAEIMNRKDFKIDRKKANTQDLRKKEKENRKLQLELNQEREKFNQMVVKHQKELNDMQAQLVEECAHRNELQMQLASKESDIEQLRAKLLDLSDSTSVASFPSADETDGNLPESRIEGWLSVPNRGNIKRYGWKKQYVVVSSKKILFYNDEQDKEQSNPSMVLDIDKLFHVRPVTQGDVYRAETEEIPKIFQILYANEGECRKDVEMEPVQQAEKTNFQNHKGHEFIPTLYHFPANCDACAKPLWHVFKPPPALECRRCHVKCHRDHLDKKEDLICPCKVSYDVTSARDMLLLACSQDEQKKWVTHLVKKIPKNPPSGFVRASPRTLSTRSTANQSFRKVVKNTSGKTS
Chain of Serine/threonine-protein kinase MARK1 (Homo sapiens) (Q9P0L2 whole entry, looked up): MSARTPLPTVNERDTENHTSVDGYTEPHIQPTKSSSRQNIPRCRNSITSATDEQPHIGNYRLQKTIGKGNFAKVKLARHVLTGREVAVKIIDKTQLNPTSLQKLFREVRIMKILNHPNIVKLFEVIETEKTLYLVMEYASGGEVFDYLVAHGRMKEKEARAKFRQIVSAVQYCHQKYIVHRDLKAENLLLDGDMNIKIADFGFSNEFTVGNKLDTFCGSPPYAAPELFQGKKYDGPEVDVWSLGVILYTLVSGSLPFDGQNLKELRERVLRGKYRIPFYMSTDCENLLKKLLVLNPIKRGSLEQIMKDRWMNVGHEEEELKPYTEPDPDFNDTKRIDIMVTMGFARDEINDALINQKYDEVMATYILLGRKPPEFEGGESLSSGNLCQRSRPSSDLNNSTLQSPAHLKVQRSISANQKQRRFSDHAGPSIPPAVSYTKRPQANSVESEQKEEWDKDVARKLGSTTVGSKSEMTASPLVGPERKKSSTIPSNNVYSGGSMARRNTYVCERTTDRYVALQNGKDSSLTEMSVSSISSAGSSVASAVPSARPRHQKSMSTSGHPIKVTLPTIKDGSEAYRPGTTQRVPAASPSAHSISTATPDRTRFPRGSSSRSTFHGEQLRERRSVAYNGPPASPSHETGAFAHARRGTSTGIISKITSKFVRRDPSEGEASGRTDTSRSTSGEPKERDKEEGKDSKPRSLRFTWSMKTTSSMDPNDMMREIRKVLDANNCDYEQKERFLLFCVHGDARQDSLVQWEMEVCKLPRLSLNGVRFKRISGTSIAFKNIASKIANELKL
Chain of Casein kinase I isoform alpha (Homo sapiens) (P48729 2-337 limits assumed): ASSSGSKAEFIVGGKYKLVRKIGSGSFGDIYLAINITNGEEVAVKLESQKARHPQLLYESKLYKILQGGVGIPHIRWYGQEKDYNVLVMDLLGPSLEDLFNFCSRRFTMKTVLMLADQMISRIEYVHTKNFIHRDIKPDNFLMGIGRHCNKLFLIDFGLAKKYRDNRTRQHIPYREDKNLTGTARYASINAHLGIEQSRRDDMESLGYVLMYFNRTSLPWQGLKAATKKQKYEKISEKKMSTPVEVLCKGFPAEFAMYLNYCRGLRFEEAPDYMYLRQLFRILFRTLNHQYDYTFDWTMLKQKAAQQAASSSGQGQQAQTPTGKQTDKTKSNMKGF
Chain of Proto-oncogene tyrosine-protein kinase Src (Homo sapiens) (P12931 2-536 limits assumed): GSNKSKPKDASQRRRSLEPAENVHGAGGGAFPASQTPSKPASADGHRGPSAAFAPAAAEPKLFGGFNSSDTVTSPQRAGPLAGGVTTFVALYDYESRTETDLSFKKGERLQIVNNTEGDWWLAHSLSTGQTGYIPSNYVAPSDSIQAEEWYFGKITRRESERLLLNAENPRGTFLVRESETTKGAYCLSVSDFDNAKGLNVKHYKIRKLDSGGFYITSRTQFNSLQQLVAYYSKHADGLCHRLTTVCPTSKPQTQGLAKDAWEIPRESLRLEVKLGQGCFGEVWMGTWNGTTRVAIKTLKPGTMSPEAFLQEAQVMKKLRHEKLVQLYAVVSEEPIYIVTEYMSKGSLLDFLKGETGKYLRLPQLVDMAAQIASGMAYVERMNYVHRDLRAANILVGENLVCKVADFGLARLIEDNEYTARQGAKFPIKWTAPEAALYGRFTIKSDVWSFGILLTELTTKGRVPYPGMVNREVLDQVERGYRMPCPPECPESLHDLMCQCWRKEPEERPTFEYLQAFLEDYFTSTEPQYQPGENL
Chain of Serine/threonine-protein kinase PAK 4 (Homo sapiens) (O96013 whole entry, looked up): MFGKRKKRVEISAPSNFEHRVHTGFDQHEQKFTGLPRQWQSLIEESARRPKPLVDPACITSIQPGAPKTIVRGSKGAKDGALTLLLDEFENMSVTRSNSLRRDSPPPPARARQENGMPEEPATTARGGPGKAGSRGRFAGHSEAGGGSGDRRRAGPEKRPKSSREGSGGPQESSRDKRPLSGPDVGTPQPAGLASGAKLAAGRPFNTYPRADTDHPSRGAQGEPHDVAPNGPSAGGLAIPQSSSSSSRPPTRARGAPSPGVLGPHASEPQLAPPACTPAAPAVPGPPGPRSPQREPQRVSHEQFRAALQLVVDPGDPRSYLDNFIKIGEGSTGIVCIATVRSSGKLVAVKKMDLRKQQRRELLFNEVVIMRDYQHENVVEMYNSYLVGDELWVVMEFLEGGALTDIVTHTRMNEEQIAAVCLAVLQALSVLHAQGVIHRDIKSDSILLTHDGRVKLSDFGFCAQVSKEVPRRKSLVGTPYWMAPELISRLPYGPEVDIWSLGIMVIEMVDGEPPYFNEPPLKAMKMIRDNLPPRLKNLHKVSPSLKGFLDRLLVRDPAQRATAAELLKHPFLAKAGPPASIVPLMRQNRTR
Chain of MAP kinase-activated protein kinase 2 (Homo sapiens) (P49137 whole entry, looked up): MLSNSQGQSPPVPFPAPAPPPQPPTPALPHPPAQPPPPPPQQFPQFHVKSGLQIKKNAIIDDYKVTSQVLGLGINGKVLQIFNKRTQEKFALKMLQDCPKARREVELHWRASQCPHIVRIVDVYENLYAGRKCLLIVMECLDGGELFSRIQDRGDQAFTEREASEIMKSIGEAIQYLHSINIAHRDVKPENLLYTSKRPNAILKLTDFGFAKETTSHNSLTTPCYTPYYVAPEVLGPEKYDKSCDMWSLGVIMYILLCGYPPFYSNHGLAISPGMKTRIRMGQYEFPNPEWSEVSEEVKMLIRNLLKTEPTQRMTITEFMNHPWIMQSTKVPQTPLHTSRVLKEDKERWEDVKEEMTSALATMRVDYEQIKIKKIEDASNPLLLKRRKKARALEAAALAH
Chain of Tyrosine-protein kinase Lck (Homo sapiens) (P06239 2-509 limits assumed): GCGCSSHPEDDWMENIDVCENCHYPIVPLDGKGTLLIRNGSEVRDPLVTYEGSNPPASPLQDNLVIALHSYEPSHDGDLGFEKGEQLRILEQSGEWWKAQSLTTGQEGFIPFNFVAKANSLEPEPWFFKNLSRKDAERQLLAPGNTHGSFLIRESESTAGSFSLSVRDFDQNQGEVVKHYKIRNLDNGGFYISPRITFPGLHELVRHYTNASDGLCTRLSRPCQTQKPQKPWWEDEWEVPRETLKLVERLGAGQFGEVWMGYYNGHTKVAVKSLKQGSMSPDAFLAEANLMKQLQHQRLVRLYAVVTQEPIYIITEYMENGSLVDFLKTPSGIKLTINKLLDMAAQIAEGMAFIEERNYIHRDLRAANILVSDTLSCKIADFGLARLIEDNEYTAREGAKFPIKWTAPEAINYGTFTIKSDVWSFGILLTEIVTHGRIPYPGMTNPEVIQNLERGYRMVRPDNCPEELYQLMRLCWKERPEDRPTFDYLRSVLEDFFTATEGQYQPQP

Regarding `O=C(O)COc1ncnc2cc(-c3ccc4[nH]ncc4c3)sc12`, the inhibition in assay [1] is 1.3%; in assay [2], -9%; in assay [3], 29%; in assay [4] it was -3.3%; in assay [5] it was -3.5%; in assay [6], 4.5%. In addition, the inhibition in assay [7] is 6.8%; in assay [8], 88.5%; in [9], 6%; in assay [10] it was 25.3%; in assay [11], -1.3%; in [12] it was 26%. The inhibition was -0.8% in [13] and 29.5% in assay [14].
Take `CC(=O)Nc1ccc(-c2cc3ncnc(SCC(=O)O)c3s2)cc1`: the inhibition in [1] is 23%; in assay [2] it was 11%; in [3], 17%; in assay [4], 27.3%; in [5], 3.3%; in assay [6], -1.3%. In addition, the inhibition in assay [7] is -3.3%; in assay [8], 50.5%; in assay [9], 13.8%; in [10], 3.3%; in assay [11], -3.8%; in assay [12], 17%. Also, the figures for the inhibition in assay [13] and in assay [14] were 5.3% and 43.3%, respectively.
